Results as given in PubChem BioAssay (NCI).
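Compound exposure: 48 hours, 5 concentrations, 96-well plates. GI50 marks 50% less growth. At the TGI there is no net growth.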

Legend:
Assay in all cases: NCI anticancer screen, dose series, 48 h
786-0 renal = test system: 786-0 renal
A498 renal = test system: A498 renal
A549 NSCLC = test system: A549 NSCLC
BT-549 breast = test system: BT-549 breast
CAKI-1 renal = test system: CAKI-1 renal
COLO 205 colon = test system: COLO 205 colon
DU-145 prostate = test system: DU-145 prostate
EKVX NSCLC = test system: EKVX NSCLC
HCC-2998 colon = test system: HCC-2998 colon
HCT-116 colon = test system: HCT-116 colon
HOP-62 NSCLC = test system: HOP-62 NSCLC
HS 578T breast = test system: HS 578T breast
HT29 colon = test system: HT29 colon
IGROV1 ovarian = test system: IGROV1 ovarian
KM12 colon = test system: KM12 colon
LOX IMVI melanoma = test system: LOX IMVI melanoma
M14 melanoma = test system: M14 melanoma
MALME-3M melanoma = test system: MALME-3M melanoma
MCF7 breast = test system: MCF7 breast
MDA-MB-231 breast = test system: MDA-MB-231 breast
MDA-MB-435 = test system: MDA-MB-435
NCI-H226 lung = test system: NCI-H226 lung
NCI-H23 lung = test system: NCI-H23 lung
NCI-H460 lung = test system: NCI-H460 lung
NCI-H522 lung = test system: NCI-H522 lung
NCI/ADR-RES ovarian = test system: NCI/ADR-RES ovarian
OVCAR-3 ovarian = test system: OVCAR-3 ovarian
OVCAR-4 ovarian = test system: OVCAR-4 ovarian
OVCAR-8 ovarian = test system: OVCAR-8 ovarian
RXF 393 renal = test system: RXF 393 renal
SF-268 CNS = test system: SF-268 CNS
SF-295 CNS = test system: SF-295 CNS
SK-MEL-2 melanoma = test system: SK-MEL-2 melanoma
SK-MEL-28 melanoma = test system: SK-MEL-28 melanoma
SK-MEL-5 melanoma = test system: SK-MEL-5 melanoma
SK-OV-3 ovarian = test system: SK-OV-3 ovarian
SN12C renal = test system: SN12C renal
SNB-19 CNS = test system: SNB-19 CNS
SNB-75 CNS = test system: SNB-75 CNS
SW-620 colon = test system: SW-620 colon
T-47D breast = test system: T-47D breast
TK-10 renal = test system: TK-10 renal
U251 CNS = test system: U251 CNS
UACC-257 melanoma = test system: UACC-257 melanoma
UACC-62 melanoma = test system: UACC-62 melanoma
UO-31 renal = test system: UO-31 renal

N#CC1(Nc2ccc(Br)cc2)CCCC1
GI50 (786-0 renal): 11.3 µM | TGI (786-0 renal): > 100 µM | GI50 (A498 renal): > 100 µM | TGI (A498 renal): > 100 µM | GI50 (A549 NSCLC): 8.15 µM | TGI (A549 NSCLC): > 100 µM | GI50 (BT-549 breast): 22.2 µM | TGI (BT-549 breast): > 100 µM | GI50 (CAKI-1 renal): 0.529 µM | TGI (CAKI-1 renal): > 100 µM | GI50 (COLO 205 colon): > 100 µM | TGI (COLO 205 colon): > 100 µM | GI50 (DU-145 prostate): > 100 µM | TGI (DU-145 prostate): > 100 µM | GI50 (EKVX NSCLC): 7.27 µM | TGI (EKVX NSCLC): > 100 µM | GI50 (HCC-2998 colon): 8.3 µM | TGI (HCC-2998 colon): > 100 µM | GI50 (HCT-116 colon): > 100 µM | TGI (HCT-116 colon): > 100 µM | GI50 (HOP-62 NSCLC): > 100 µM | TGI (HOP-62 NSCLC): > 100 µM | GI50 (HS 578T breast): > 100 µM | TGI (HS 578T breast): > 100 µM | GI50 (HT29 colon): > 100 µM | TGI (HT29 colon): > 100 µM | GI50 (IGROV1 ovarian): 75.4 µM | TGI (IGROV1 ovarian): > 100 µM | GI50 (KM12 colon): 1.86 µM | TGI (KM12 colon): > 100 µM | GI50 (LOX IMVI melanoma): 0.543 µM | TGI (LOX IMVI melanoma): > 100 µM | GI50 (M14 melanoma): 1.2 µM | TGI (M14 melanoma): > 100 µM | GI50 (MALME-3M melanoma): 42.6 µM | TGI (MALME-3M melanoma): > 100 µM | GI50 (MCF7 breast): 9.98 µM | TGI (MCF7 breast): > 100 µM | GI50 (MDA-MB-231 breast): 3.16 µM | TGI (MDA-MB-231 breast): > 100 µM | GI50 (MDA-MB-435): 3.78 µM | TGI (MDA-MB-435): > 100 µM | GI50 (NCI-H226 lung): > 100 µM | TGI (NCI-H226 lung): > 100 µM | GI50 (NCI-H23 lung): > 100 µM | TGI (NCI-H23 lung): > 100 µM | GI50 (NCI-H460 lung): 1.99 µM | TGI (NCI-H460 lung): > 100 µM | GI50 (NCI-H522 lung): > 100 µM | TGI (NCI-H522 lung): > 100 µM | GI50 (NCI/ADR-RES ovarian): 9.2 µM | TGI (NCI/ADR-RES ovarian): > 100 µM | GI50 (OVCAR-3 ovarian): 96.4 µM | TGI (OVCAR-3 ovarian): > 100 µM | GI50 (OVCAR-4 ovarian): > 100 µM | TGI (OVCAR-4 ovarian): > 100 µM | GI50 (OVCAR-8 ovarian): 26.5 µM | TGI (OVCAR-8 ovarian): > 100 µM | GI50 (RXF 393 renal): > 100 µM | TGI (RXF 393 renal): > 100 µM | GI50 (SF-268 CNS): > 100 µM | TGI (SF-268 CNS): > 100 µM | GI50 (SF-295 CNS): 2.3 µM | TGI (SF-295 CNS): > 100 µM | GI50 (SK-MEL-2 melanoma): > 100 µM | TGI (SK-MEL-2 melanoma): > 100 µM | GI50 (SK-MEL-28 melanoma): > 100 µM | TGI (SK-MEL-28 melanoma): > 100 µM | GI50 (SK-MEL-5 melanoma): 3.05 µM | TGI (SK-MEL-5 melanoma): > 100 µM | GI50 (SK-OV-3 ovarian): > 100 µM | TGI (SK-OV-3 ovarian): > 100 µM | GI50 (SN12C renal): 12.6 µM | TGI (SN12C renal): > 100 µM | GI50 (SNB-19 CNS): > 100 µM | TGI (SNB-19 CNS): > 100 µM | GI50 (SNB-75 CNS): > 100 µM | TGI (SNB-75 CNS): > 100 µM | GI50 (SW-620 colon): 3.22 µM | TGI (SW-620 colon): > 100 µM | GI50 (T-47D breast): 9.39 µM | TGI (T-47D breast): > 100 µM | GI50 (TK-10 renal): > 100 µM | TGI (TK-10 renal): > 100 µM | GI50 (U251 CNS): 44.5 µM | TGI (U251 CNS): > 100 µM | GI50 (UACC-257 melanoma): 31.4 µM | TGI (UACC-257 melanoma): > 100 µM | GI50 (UACC-62 melanoma): 0.427 µM | TGI (UACC-62 melanoma): > 100 µM | GI50 (UO-31 renal): 4.69 µM | TGI (UO-31 renal): > 100 µM
